Laboratory results from patent US8247383B2, “Drug-carrier complexes and methods of use thereof” (The General Hospital Corporation, priority 1999, dated 2012).
Like-named read-outs stand apart in the source and are kept apart here. d = 2'-deoxy (DNA); r = 2'-OH (RNA)

Assays:
[1] = Carrier biokinetics (3H-labeled carriers, blood); assay type: in vivo; conditions: 1 mg/kg via tail vein, mice
Experimental: Unloaded carriers (Example 8) were labeled with tritium (^3H). Carriers were oxidized with periodate to produce aldehyde groups on the 3′-ribonucleotide base present in the structure, and reacted with [^3H] borohydride to introduce tritium into carrier core structure. Carriers were purified on Sephadex G-25 and injected at 1 mg/kg into normal outbred mice (males, 30 g) via tail vein. Blood samples were collected at different time points and counted. The blood half-lives were ca. 30 min and 10 hours for unprotected and PHF-protected carriers, respectively.

[2] = test system: outbred mice; experiment: Carrier toxicity in vivo; conditions: 100 mg/kg intravenously, observed for 30 days
From the text: Carrier toxicity in vivo.

[3] = cited from earlier work
[4] = test system: outbred mice; experiment: Adduct toxicity in vivo; conditions: observed for 30 days
Experimental: Adduct toxicity in vivo. […] Bis-intercalator content was one molecule per 6 base pairs of the nucleotide core. […] The adduct and free bis-intercalator were administered intravenously, as described above, into male outbred mice (30±2 g, n=4 per group) at 30 mg/kg by bis-intercalator. In a third group, unloaded carrier was injected at 100 mg/kg within 15 minutes after the administration of 30 mg/kg of bis-doxorubicin.

[5] = assay type: physicochemical
Experimental: An oligonucleotide with arbitrarily chosen […] sequence, 5′CGTCGACGTCGAATATACGC (SEQ ID NO: 3), and a complementary 5′-amino modified oligonucleotide 5′GC GTA TAT TCG ACG TCG ACG (SEQ ID NO: 4) were purchased from a commercial vendor. To form a double stranded oligonucleotide, the single-stranded oligonucleotides were hybridized and lyophilized as described in Example 1. The resultant double stranded oligonucleotide was stable at ambient (25° C.) and body temperature (37° C.).

[6] = test system: antifluorescein rabbit IgG; experiment: Steric protection: kinetics of fluorescein quenching by anti-fluorescein IgG; assay type: binding; conditions: polymer chains positioned within 2 and 9 bases of fluorescein; 10-fold anti-fluorescein IgG, 20 mM PBS, pH=7.5
Experimental: To determine the degree of steric protection of the nucleotide core by polymer chains, a series of double-stranded oligonucleotides were synthesized. A model antigen (fluorescein) and a model protective chain (polyethyleneglycol) were positioned on the oligonucleotide at various distances. Then kinetics of fluorescein moiety interactions with fluorescence-quenching antifluorescein rabbit IgG (Molecular Probes, Oreg.) was determined to evaluate the degree of steric protection. The latter was investigated as a function of the distance between the antigen and the protective chain. Four 5′-amino modified oligonucleotides with the same sequence 5′-TTT-CTC-TCT-CTC-TCT-CTC-TCT-3′ (SEQ ID NO: 5) were obtained from a commercial source. […]
The resultant double-stranded oligonucleotides were purified by SEC HPLC and modified, through the 5′-aminogroup of the first strand, with N-hydroxysuccinimide ester of carboxy-polyethyleneglycol (MW=2 kDa and 20 kDa), and with N-hydroxysuccinimide ester of branched “PEG2” polyethyleneglycol (10 kDa). […] Fluorescein—antibody interaction was registered by quenching of the fluorescein fluorescence by the antibody. Fluorescence was registered at 515 nm (excitation at 490 nm). The kinetics of fluorescence quenching depended on the position of the fluorescein moiety relative to the polymer chain.

[7] = Lyophilization and reconstitution in PBS with membrane filtration; assay type: physicochemical; conditions: one milligram by doxorubicin in 0.1 ml of 50 mM PBS, pH=7
Experimental: The adducts obtained as described in Examples 2 and 3 were used in a lyophilized form. Doxorubicin powder (Sigma Chemical Co., St. Louis, Mo.) and lyophilized “Doxorubicin for injection” were used as control preparations. Each of the four preparations, in the amount of one milligram by doxorubicin, were suspended in 0.1 ml of a 50 mM PBS, pH=7. […] The resultant solutions oligonucleotide-doxorubicin adduct solutions were filtered through […] PTFE membrane filters; doxorubicin was recovered in the filtrates with at least 98% yield (by adsorption at 470 nm).

[8] = test system: human epithelial cells (kidney, line 293); experiment: Carrier and adduct toxicity in cell culture (Trypan Blue staining); assay type: cell-based; conditions: control experiment, confluent and growing cultures
Experimental: Carrier toxicity in cell culture. Unloaded carriers (Example 7) were tested in near confluent culture of human epithelial cells (kidney, line 293, from ATCC #CRL 1573) in DMEM with 5% calf serum. Carriers were added to the cell culture at various concentrations, from 1 mg/ml to 1 mg/ml. Cell survival rate was determined by staining with Trypan Blue after a 16-hour incubation.
Adduct toxicity in cell culture. Doxorubicin-loaded carriers (Example 12) were tested in near confluent and growing cultures of human epithelial cells (kidney, line 293) in DMEM containing 5% calf serum. […] Cell survival rate was determined by staining with Trypan Blue after a 16-hour incubation.

[9] = Doxorubicin biodistribution (14C tissue radioactivity); assay type: in vivo, mice; conditions: 0.3 mg/kg via tail vein, 20 hours after injection
Experimental: (^14C)doxorubicin-loaded carriers (Example 12) and free (^14C)doxorubicin (control) were injected into normal outbred mice (males, 30 g) via tail vein, at 0.3 mg/kg. Biodistribution was studied by measuring tissue radioactivity 20 hours after injection. Tissue samples were disintegrated, solubilized, mixed with a scintillation cocktail and counted on a scintillation counter.

[10] = design: species or system mice; conditions: mouse, in vivo, iv
Experimental: An arbitrarily chosen 5-amino modified 18-base phosphodiester oligonucleotide 5° […] (SEQ ID NO: 11), 0.11 mg, was modified with trace amount of ethylenediaminetraacetic anhydride and hybridized with (a) a complementary oligonucleotide, 5′[…] (SEQ ID NO: 12), and (b) analogous complementary oligonucleotide amino modified at both 5′ and 3′ ends and at positions 4, 9 and 15 (from 5′). The hybridized amino modified DSO was incubated with 1 ml of 10 mg/ml solution of N-hydroxycuccinimido-polyethyleneglycol, MW=10 kDa, at pH=8 for 8 hours. The products, PEG-modified double stranded oligonucleotides, were isolated by HPLC. Both PEG-modified and unmodified double stranded oligonucleotides were labeled with 111 in 0.5 M citrate buffer solution, pH=5.6. Labeled preparations were purified by SEC HPLC. Each was divided into 4 equal doses and administered intravenously to outbred mice (n=4 in each group, male, 31±2 g). Blood samples were taken immediately after injection, then at 0.25, 0.5, 1, 2, 4 and 8 hours.

## PHF-protected carriers: amino modified double-stranded oligonucleotide (SEQ ID NO: 9/8) conjugated with 10 kDa PHF (chain 1 ATGGCGCACGCTGGGAGAC; chain 2 TCTCCCAGCGTGCGCCATC; sugars from the 5' end d18 r1, backbone and methylation of C not given here; amino modifications at positions 1, 2, 12, 19 of first strand, PHF polymer conjugated)
[1]
  blood half-life: ~10 h
[2]
  signs of toxicity: None of the animals showed signs of toxicity
[2]; n=6
  survival: All animals survived

## C[C@H](CNCCNC[C@@H](C)N1C(=O)c2cccc3cc([N+](=O)[O-])cc(c23)C1=O)N1C(=O)c2cccc3cc([N+](=O)[O-])cc(c23)C1=O [DMP 840]
[3]
  solubility at physiological pH: limited solubility

## COc1cccc2c1C(=O)c1c(O)c3c(c(O)c1C2=O)C[C@@](O)(C(C)=O)C[C@@H]3O[C@H]1C[C@H](NCc2ccc(CN[C@H]3C[C@H](O[C@H]4C[C@](O)(C(C)=O)Cc5c(O)c6c(c(O)c54)C(=O)c4c(OC)cccc4C6=O)O[C@@H](C)[C@H]3O)cc2)[C@H](O)[C@H](C)O1 [WP-631]
[3]
  solubility at physiological pH: limited solubility
[4]; 30 mg/kg bis-doxorubicin, then unloaded carrier 100 mg/kg within 15 minutes
  survival: all animals survived
[4]; 30 mg/kg by bis-intercalator intravenously, n=4 per group
  survival: only one animal survived

## double stranded oligonucleotide: hybrid of 5′CGTCGACGTCGAATATACGC (SEQ ID NO: 3) and complementary 5′-amino modified SEQ ID NO: 4 (chain 1 CGTCGACGTCGAATATACGC; chain 2 GCGTATATTCGACGTCGACG; complementary strand carries 5'-amino modification, further chemistry not given here)
[5]
  stability of double stranded oligonucleotide: stable

## 20 kDa polymer: fluorescein-labeled double-stranded oligonucleotide (SEQ ID NO: 5/6) modified at 5′-amino group with 20 kDa polyethyleneglycol (chain 1 TTTCTCTCTCTCTCTCTCTCT; chain 2 AGAGAGAGAGAGAGAGAGAAAA; 5'-amino linked 20 kDa PEG, fluorescein on an internal base, further chemistry not given here)
[6]
  decrease of the kinetic constant of fluorescein-antibody interaction: 80%

## 2 kDa polymer: fluorescein-labeled double-stranded oligonucleotide (SEQ ID NO: 5/6) modified at 5′-amino group with 2 kDa polyethyleneglycol (chain 1 TTTCTCTCTCTCTCTCTCTCT; chain 2 AGAGAGAGAGAGAGAGAGAAAA; fluorescein, 2 kDa PEG, chemistry not fully specified)
[6]
  decrease of the kinetic constant of fluorescein-antibody interaction: 20%

## COc1cccc2c1C(=O)c1c(O)c3c(c(O)c1C2=O)C[C@@](O)(C(=O)CO)C[C@@H]3O[C@H]1C[C@H](N)[C@H](O)[C@H](C)O1 [doxorubicin, Doxorubicin]
[3]
  solubility at physiological pH: limited solubility
[7]
  dissolution on suspending the preparation: formed suspensions
[8]
  cytotoxic effects compared with doxorubicin-loaded carriers: essentially the same cytotoxic effects
[9]
  label distribution to liver: 3±0.6 % dose/g
  label distribution to lung: 4.6±1.6 % dose/g
[9]; mean±standard deviation
  label content in skeletal muscle: 2±0.4 % dose/g

## unprotected carriers: double-stranded carrier from unmodified oligonucleotides SEQ ID NO: 7 and 8 (chain 1 ATGGCGCACGCTGGGAGA; chain 2 TCTCCCAGCGTGCGCCATC; chain 1: DNA, backbone and methylation of C not given here; chain 2: sugars from the 5' end d18 r1, all phosphodiester, methylation of C not given here)
[1]
  blood half-life: ca. 30 min

## unmodified double stranded oligonucleotides: labeled SEQ ID NO: 11 hybridized with complementary SEQ ID NO: 12 (chain 1 CGTCGACGTCGAATATACGC; chain 2 GCGTATATTCGACGTCGACG; DNA, phosphodiester; one strand carries an unspecified label)
[10]
  blood half-life: 0.2 ± 0.083 h
